Measurements from patent US9029325B2, “Amylin analogues and pharmaceutical compositions thereof” (Novo Nordisk A/S, priority 2011, dated 2015).
Starred links: 1 amine or outer side, 2 acyl side, 3 side chain; linkers in the order of their positions; H or OH if unused. Positions of bridges follow the written chain, without caps; N, C: chain ends. Residues, ends and D or L forms follow the SMILES beside them. *: point of attachment. C20 diacid = O=C(O)CCCCCCCCCCCCCCCCCCC(=O)*; γGlu = O=C(O)[C@H](CCC(=O)[*:2])N[*:1]

Assay: Assay (III) ThT fibrillation assay for physical stability
Assay type: physicochemical
Conditions: for Th T pH 4.0 lag time (h): 37° C., orbital shaking 960 rpm
From the text: Low physical stability of a polypeptide may lead to amyloid fibril formation, which is observed as well-ordered, thread-like macromolecular structures in the sample eventually resulting in gel formation. This has traditionally been measured by visual inspection of the sample. However, that kind of measurement is very subjective and depending on the observer. Therefore, the application of a small molecule indicator probe is much more advantageous. Thioflavin T (ThT) is such a probe and has a distinct fluorescence signature when binding to fibrils [Naiki et al. (1989) Anal. Biochem. 177, 244-249; LeVine (1999) Methods. Enzymol. […], 274-284].
The time course for fibril formation can be described by a sigmoidal curve with the following expression [Nielsen et al. (2001) Biochemistry 40, 6036-6046]:
[formula] Here, F is the ThT fluorescence at the time t. The constant t0 is the time needed to reach 50% of maximum fluorescence. The two important parameters describing fibril formation are the lag-time calculated by t0−2T and the apparent rate constant kapp=1/τ.
Few of those intermediates nucleate to form a template onto which further intermediates may assembly and the fibrillation proceeds. The lag-time corresponds to the interval in which the critical mass of nucleus is built up and the apparent rate constant is the rate with which the fibril itself is formed.
Samples were prepared freshly before each assay. Each sample composition is described in each example. The pH of the sample was adjusted to the desired value using appropriate amounts of concentrated NaOH and HClO4 or HCl. Thioflavin T was added to the samples from a stock solution in H2O to a final concentration of 1 μM.
Sample aliquots of 200 μl were placed in a 96 well microtiter plate (Packard OptiPlate™-96, white polystyrene). Usually, four or eight replica of each sample (corresponding to one test condition) were placed in one column of wells. The plate was sealed with Scotch Pad (Qiagen).
Incubation at given temperature, shaking and measurement of the ThT fluorescence emission were done in a Fluoroskan Ascent FL fluorescence platereader or Varioskan platereader (Thermo Labsystems). The temperature was adjusted to 37° C. The orbital shaking was adjusted to 960 rpm with an amplitude of 1 mm in all the presented data. Fluorescence measurement was done using excitation through a 444 nm filter and measurement of emission through a 485 nm filter.
Each run was initiated by incubating the plate at the assay temperature for 10 min. The plate was measured every 20 minutes for a desired period of time. Between each measurement, the plate was shaken and heated as described.
The measurement points were saved in Microsoft Excel format for further processing and curve drawing and fitting was performed using GraphPad Prism. The background emission from ThT in the absence of fibrils was negligible. The data points are typically a mean of four or eight samples and shown with standard deviation error bars. Only data obtained in the same experiment (i.e. samples on the same plate) are presented in the same graph ensuring a relative measure of fibrillation […].
The data set may be fitted to Eq. (1). However, since full sigmodial curves in this case are not always achieved during the measurement time, the degree of fibrillation is expressed as ThT fluorescence tabulated as the mean of the samples and shown with the standard deviation at various time points.
The polypeptide concentration in each of the tested formulations were measured both before application in the ThT fibrillation assay (“Initial”) and after completion of the ThT fibrillation (“After ThT assay”). Concentrations were determined by reverse HPLC methods using a pramlintide standard as a reference. Before measurement after completion 150 μl was collected from each of the replica and transferred to an Eppendorf tube. These were centrifuged at 30000 G for 40 mins. […]

SMILES | Th T pH 4.0 lag time (h) | ThT pH 4.0 lag time (Table 9) [hr]
CC[C@H](C)[C@H](NC(=O)[C@@H]1CCCN1C(=O)CNC(=O)[C@H](Cc1ccccc1)NC(=O)[C@H](CC(N)=O)NC(=O)[C@H](CC(N)=O)NC(=O)[C@H](CO)NC(=O)[C@H](CO)NC(=O)[C@H](Cc1c[nH]cn1)NC(=O)[C@H](Cc1c[nH]cn1)NC(=O)[C@H](CC(C)C)NC(=O)[C@H](Cc1ccccc1)NC(=O)[C@H](CCC(=O)O)NC(=O)[C@H](C)NC(=O)[C@H](CC(C)C)NC(=O)[C@H](CCCNC(=N)N)NC(=O)[C@H](CCC(N)=O)NC(=O)[C@@H](NC(=O)[C@H](C)NC(=O)[C@@H]1CSSC[C@H](NC(=O)CNC(=O)CC[C@H](NC(=O)CCCCCCCCCCCCCCCCCCC(=O)O)C(=O)O)C(=O)N[C@@H](CC(N)=O)C(=O)N[C@@H]([C@@H](C)O)C(=O)N[C@@H](C)C(=O)N[C@@H]([C@@H](C)O)C(=O)N1)[C@@H](C)O)C(=O)N[C@@H](CC(C)C)C(=O)N1CCC[C@H]1C(=O)N1CCC[C@H]1C(=O)N[C@H](C(=O)N[C@@H](CC(N)=O)C(=O)N[C@H](C(=O)NCC(=O)N[C@@H](CO)C(=O)N[C@@H](CC(N)=O)C(=O)N[C@H](C(=O)N1CCC[C@H]1C(N)=O)[C@@H](C)O)C(C)C)[C@@H](C)O [Example 91, N-alpha-[(S)-4-Carboxy-4-(19-carboxynonadecanoylamino)butyryl]-[Gly1, Glu14, His17, Pro37]-pramlintide] ({C20 diacid-γGlu}-GCNTATCATQRLAEFLHHSSNNFGPILPPTNVGSNTP-NH2; disulfide 2-7) | 29 | –
CC[C@H](C)[C@H](NC(=O)[C@@H]1CCCN1C(=O)CNC(=O)[C@H](Cc1ccccc1)NC(=O)[C@H](CC(N)=O)NC(=O)[C@H](CC(N)=O)NC(=O)[C@H](CO)NC(=O)[C@H](CO)NC(=O)[C@H](Cc1c[nH]cn1)NC(=O)[C@H](CCCNC(=N)N)NC(=O)[C@H](CC(C)C)NC(=O)[C@H](Cc1ccccc1)NC(=O)[C@H](CCC(=O)O)NC(=O)[C@H](C)NC(=O)[C@H](CC(C)C)NC(=O)[C@H](CCCNC(=N)N)NC(=O)[C@H](CCC(N)=O)NC(=O)[C@@H](NC(=O)[C@H](C)NC(=O)[C@@H]1CSSC[C@H](NC(=O)[C@H](CCC(=O)O)NC(=O)[C@H](CCCNC(=N)N)NC(=O)[C@H](CCC(=O)O)NC(=O)CC[C@H](NC(=O)CCCCCCCCCCCCCCCCCCC(=O)O)C(=O)O)C(=O)N[C@@H](CC(N)=O)C(=O)N[C@@H]([C@@H](C)O)C(=O)N[C@@H](C)C(=O)N[C@@H]([C@@H](C)O)C(=O)N1)[C@@H](C)O)C(=O)N[C@@H](CC(C)C)C(=O)N1CCC[C@H]1C(=O)N1CCC[C@H]1C(=O)N[C@H](C(=O)N[C@@H](CC(N)=O)C(=O)N[C@H](C(=O)NCC(=O)N[C@@H](CO)C(=O)N[C@@H](CC(N)=O)C(=O)N[C@H](C(=O)N1CCC[C@H]1C(N)=O)[C@@H](C)O)C(C)C)[C@@H](C)O [Example 124, N-alpha-[(S)-4-Carboxy-4-(19-carboxynonadecanoylamino)butyryl]-Glu-Arg-[Glu1, Glu14, Arg17, Pro37]-pramlintide] ({C20 diacid-γGlu}-ERECNTATCATQRLAEFLRHSSNNFGPILPPTNVGSNTP-NH2; disulfide 4-9) | >45 | >45
